Source: US20140377201A1, “SKIN-WHITENING COMPOSITION CONTAINING EXTRACTS FROM TREES INCLUDING PAPER MULBERRY” (Amorepacific Corporation, priority 2010, published 2014)

How the values were obtained:
B16/F10 melanoma cells = experiment: Melanin production inhibitory activity using B16/F10 melanoma cells; type: cell-based; conditions: 50 μg/ml of arbutin; incubated for 3 days; absorbance at 405 nm
Procedure: Samples, containing 0.001 wt % of each of the extracts of Examples 1 to 9 and Comparative Examples 1 to 3, and 50 /μg/ml of arbutin, were used as test materials. Each of the test materials was added to a culture of B16/F10 melanoma cells (Korean Cell Line Bank) at a given concentration and incubated for 3 days. The medium as removed, and the cells were washed with PBS and lysed with 1N NaOH, and the absorbance at 405 nm was measured. As a control, cells to which no test material was added were used. The skin whitening effects of the test materials were measured by measuring the melanin production inhibitory activity of each test material in comparison with the content of melanin in the control. Melanin production inhibition (%) was calculated using the following equation 2, and the calculation results are shown in Table 2 below.
Melanin production inhibition (%)=100−(absorbance of each test material/absorbance of control)×100 [Equation 2]

[1] = system: tyrosinase (SIGMA) extracted from mushrooms; experiment: Tyrosinase inhibitory effect; type: biochemical; conditions: positive control, 40 μg/ml of kojic acid; substrate tyrosine; 37° C.; absorbance at 475 nm
Procedure: The enzyme tyrosinase used in this Test Example was a tyrosinase (SIGMA) extracted from mushrooms. First, the substrate tyrosine was dissolved in distilled water at a concentration of 0.3 mg/ml, and 1.0 ml of the solution was placed in each test tube. Then, 1.0 ml of potassium-phosphate buffer (0.1 M, pH 6.8) and 0.7 ml of distilled water were added thereto, thereby preparing a mixed solution. […] Then, the test tube containing the reaction solution was quenched in ice water to stop the reaction, and the absorbance at 475 nm was measured with a photoelectric spectrophotometer. Then, the tyrosinase inhibitory activity of each of the extracts was calculated using the following equation 1, and the results of the calculation are shown in Table 1 below. Tyrosinase inhibition (%)=100−(absorbance of each extract/absorbance of control×100 [Equation 1]

| Compound | Melanin production inhibition (%) (B16/F10 melanoma cells) | Tyrosinase inhibition (%) [1] |
| --- | --- | --- |
| OC[C@H]1O[C@@H](Oc2ccc(O)cc2)[C@H](O)[C@@H](O)[C@@H]1O [Arbutin, arbutin] | 48% | – |
| O=c1cc(CO)occ1O [Kojic acid, kojic acid] | – | 51% |
